What was measured:
[1] = system: ducksalad; assay: Test B flooded paddy test; type: in vivo, Heteranthera limosa; settings: 250 g ai/ha, Flood, 13 days, 0 to 100 scale (0 no effect, 100 complete control)
Outline: (§1)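 Percent weed or crop control, judged by eye on a 0–100 scale 13 days post-treatment, reflects compound added to a 3 cm flood maintained over 2-leaf plants in the greenhouse. Missing entries are marked with a dash.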

[2] = system: corn; assay: Test A postemergence; type: in vivo, Zea mays; settings: postemergence, 10 days
Outline: (§2)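 Seeds in loam–sand blend received a directed preemergence soil spray of compound in non-phytotoxic solvent with surfactant; postemergence plants (2–10 cm, one- to two-leaf stage) were sprayed with the same formulation. After 10 days in greenhouse, injury was rated visually versus untreated controls, 0 (no effect) to 100 (complete control).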

[3] = system: barnyardgrass; assay: Test B flooded paddy test; type: in vivo, Echinochloa crus-galli; settings: 250 g ai/ha, Flood, 13 days, 0 to 100 scale (0 no effect, 100 complete control)
Outline: as §1

[4] = system: goosegrass; assay: Test A preemergence; type: in vivo, Eleusine indica
Outline: as §2

[5] = system: soybean; assay: Test A preemergence; type: in vivo, Glycine max
Outline: as §2

[6] = system: foxtail, giant; assay: Test A preemergence; type: in vivo, Setaria faberi
Outline: as §2

[7] = system: blackgrass; assay: Test A postemergence; type: in vivo, Alopecurus myosuroides; settings: postemergence, 10 days
Outline: as §2

[8] = system: pigweed, palmer; assay: Test A postemergence; type: in vivo, Amaranthus palmeri; settings: postemergence, 10 days
Outline: as §2

[9] = system: ryegrass, Italian; assay: Test A preemergence; type: in vivo, Lolium multiflorum
Outline: as §2

[10] = system: rice; assay: Test B flooded paddy test; type: in vivo, Oryza sativa; settings: 250 g ai/ha, Flood, 13 days, 0 to 100 scale (0 no effect, 100 complete control)
Outline: as §1

[11] = system: soybean; assay: Test A postemergence; type: in vivo, Glycine max; settings: postemergence, 10 days
Outline: as §2

[12] = system: horseweed; assay: Test A postemergence; type: in vivo, Erigeron canadensis; settings: postemergence, 10 days
Outline: as §2

[13] = system: goosegrass; assay: Test A postemergence; type: in vivo, Eleusine indica; settings: postemergence, 10 days
Outline: as §2

[14] = system: ragweed; assay: Test A preemergence; type: in vivo, Ambrosia artemisiifolia
Outline: as §2

[15] = system: sedge, umbrella; assay: Test B flooded paddy test; type: in vivo, Cyperus difformis; settings: 250 g ai/ha, Flood, 13 days, 0 to 100 scale (0 no effect, 100 complete control)
Outline: as §1

[16] = system: wheat; assay: Test A preemergence; type: in vivo, Triticum aestivum
Outline: as §2

[17] = system: kochia; assay: Test A preemergence; type: in vivo, Bassia scoparia
Outline: as §2

[18] = system: ragweed; assay: Test A postemergence; type: in vivo, Ambrosia artemisiifolia; settings: postemergence, 10 days
Outline: as §2

[19] = system: corn; assay: Test A preemergence; type: in vivo, Zea mays
Outline: as §2

[20] = system: ryegrass, Italian; assay: Test A postemergence; type: in vivo, Lolium multiflorum; settings: postemergence, 10 days
Outline: as §2

[21] = system: oat, wild; assay: Test A postemergence; type: in vivo, Avena fatua; settings: postemergence, 10 days
Outline: as §2

[22] = system: wheat; assay: Test A postemergence; type: in vivo, Triticum aestivum; settings: postemergence, 10 days
Outline: as §2

[23] = system: oat, wild; assay: Test A preemergence; type: in vivo, Avena fatua
Outline: as §2

[24] = system: kochia; assay: Test A postemergence; type: in vivo, Bassia scoparia; settings: postemergence, 10 days
Outline: as §2

[25] = system: foxtail, giant; assay: Test A postemergence; type: in vivo, Setaria faberi; settings: postemergence, 10 days
Outline: as §2

[26] = system: blackgrass; assay: Test A preemergence; type: in vivo, Alopecurus myosuroides
Outline: as §2

[27] = system: pigweed, palmer; assay: Test A preemergence; type: in vivo, Amaranthus palmeri
Outline: as §2

[28] = 125 g ai/ha, 0 to 100 scale, 0 no effect, 100 complete control
[29] = 500 g ai/ha, visual injury, 0 to 100 scale (0 no effect, 100 complete control)
[30] = 125 g ai/ha, visual injury after 10 days, 0 to 100 scale, 0 is no effect, 100 is complete control
[31] = 500 g ai/ha, 0 to 100 scale (0 no effect, 100 complete control), 10 days

CCCCc1ncn(-c2cccc(C(=O)N3C[C@H](C)Oc4c(C)cccc43)c2)n1 [Compound 86]
Plant response rating, Ducksalad [1]: 65 | Corn plant response rating [2, 28]: 0 | Plant response rating, Corn [2, 29]: 10 | Plant response rating, Barnyardgrass [3]: 0 | Plant response rating, Goosegrass [4, 30]: 60 | Plant response rating, Goosegrass [4, 31]: 90 | Plant response rating, Soybean [5, 30]: 0 | Plant response rating, Soybean [5, 31]: 0 | Plant response rating, Foxtail, Giant [6, 30]: 0 | Plant response rating, Foxtail, Giant [6, 31]: 70 | Blackgrass plant response rating [7, 28]: 0 | Plant response rating, Blackgrass [7, 29]: 30 | Pigweed, Palmer plant response rating [8, 28]: 20 | Plant response rating, Pigweed, Palmer [8, 29]: 40 | Plant response rating, Ryegrass, Italian [9, 30]: 70 | Plant response rating, Ryegrass, Italian [9, 31]: 100 | Plant response rating, Rice [10]: 0 | Soybean plant response rating [11, 28]: 50 | Plant response rating, Soybean [11, 29]: 100 | Horseweed plant response rating [12, 28]: 0 | Plant response rating, Horseweed [12, 29]: 0 | Goosegrass plant response rating [13, 28]: 10 | Plant response rating, Goosegrass [13, 29]: 50 | Plant response rating, Ragweed [14, 30]: 0 | Plant response rating, Ragweed [14, 31]: 0 | Plant response rating, Sedge, Umbrella [15]: 90 | Plant response rating, Wheat [16, 30]: 0 | Plant response rating, Wheat [16, 31]: 10 | Plant response rating, Kochia [17, 30]: 60 | Plant response rating, Kochia [17, 31]: 70 | Ragweed plant response rating [18, 28]: 50 | Plant response rating, Ragweed [18, 29]: 50 | Plant response rating, Corn [19, 30]: 0 | Plant response rating, Corn [19, 31]: 20 | Ryegrass, Italian plant response rating [20, 28]: 10 | Plant response rating, Ryegrass, Italian [20, 29]: 50 | Oat, Wild plant response rating [21, 28]: 0 | Plant response rating, Oat, Wild [21, 29]: 10 | Wheat plant response rating [22, 28]: 10 | Plant response rating, Wheat [22, 29]: 20 | Plant response rating, Oat, Wild [23, 30]: 0 | Plant response rating, Oat, Wild [23, 31]: 80 | Kochia plant response rating [24, 28]: 50 | Plant response rating, Kochia [24, 29]: 90 | Foxtail, Giant plant response rating [25, 28]: 10 | Plant response rating, Foxtail, Giant [25, 29]: 20 | Plant response rating, Blackgrass [26, 30]: 0 | Plant response rating, Blackgrass [26, 31]: 30 | Plant response rating, Pigweed, Palmer [27, 30]: 20 | Plant response rating, Pigweed, Palmer [27, 31]: 90
